Experimental data from ChEMBL document CHEMBL1201862, “PubChem BioAssay data set” (2004).
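Each compound was tested at five concentrations against cells in 96-well plates for 48 hours. GI50 is the concentration that inhibits growth by half.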 Calls of active or inactive are those of the source. Cut-off read from the data, not from the text of the source: active = GI50 up to about 1.1 µM and inactive = higher.

Legend:
Assay in all cases: NCI anticancer screen, dose series, 48 h
BT-549 = test system: BT-549
NCI-H23 = test system: NCI-H23
UACC-62 = test system: UACC-62
A498 = test system: A498
K562 = test system: K562
OVCAR-4 = test system: OVCAR-4
T47D = test system: T47D
EKVX = test system: EKVX
SF-295 = test system: SF-295
NCI/ADR-RES = test system: NCI/ADR-RES
IGROV-1 = test system: IGROV-1
MOLT-4 = test system: MOLT-4
PC-3 = test system: PC-3
OVCAR-3 = test system: OVCAR-3
A549 = test system: A549
M14 = test system: M14
HCC 2998 = test system: HCC 2998
HCT-15 = test system: HCT-15
LOX IMVI = test system: LOX IMVI
UO-31 = test system: UO-31
SNB-19 = test system: SNB-19
Hs-578T = test system: Hs-578T
RPMI-8226 = test system: RPMI-8226
SR = test system: SR
SW-620 = test system: SW-620
CCRF-CEM = test system: CCRF-CEM
KM12 = test system: KM12
ACHN = test system: ACHN
CAKI-1 = test system: CAKI-1
COLO 205 = test system: COLO 205
SK-MEL-5 = test system: SK-MEL-5
SF-268 = test system: SF-268
Malme-3M = test system: Malme-3M
786-0 = test system: 786-0
SN12C = test system: SN12C
HOP-62 = test system: HOP-62
MDA-MB-435 = test system: MDA-MB-435
HCT-116 = test system: HCT-116
NCI-H522 = test system: NCI-H522
NCI-H460 = test system: NCI-H460
OVCAR-5 = test system: OVCAR-5
HL-60 = test system: HL-60
SNB-75 = test system: SNB-75
SK-MEL-28 = test system: SK-MEL-28
OVCAR-8 = test system: OVCAR-8
MDA-MB-231 = test system: MDA-MB-231
HOP-92 = test system: HOP-92
U-251 = test system: U-251
TK-10 = test system: TK-10
SK-MEL-2 = test system: SK-MEL-2
UACC-257 = test system: UACC-257
SK-OV-3 = test system: SK-OV-3
DU-145 = test system: DU-145
MCF7 = test system: MCF7
MDA-N = test system: MDA-N
SF-539 = test system: SF-539
RXF 393 = test system: RXF 393
NCI-H226 = test system: NCI-H226
HT-29 = test system: HT-29

`Cc1cn(Cc2cccc(C3=NCCCN3)c2)c(=O)n(Cc2cccc(C3=NCCCN3)c2)c1=O` was tested, and the GI50 (BT-549) was > 100 µM (inactive), the GI50 (NCI-H23) was > 100 µM (inactive) and the GI50 (UACC-62) was > 100 µM (inactive). The GI50 (A498) was > 100 µM (inactive), the GI50 (K562) was > 100 µM (inactive) and the GI50 (OVCAR-4) was > 100 µM (inactive). For the same compound, the GI50 (T47D) was > 100 µM (inactive), the GI50 (EKVX) was > 100 µM (inactive) and the GI50 (SF-295) was > 100 µM (inactive). For the same compound, the GI50 (NCI/ADR-RES) was > 100 µM (inactive), the GI50 (IGROV-1) was > 100 µM (inactive) and the GI50 (MOLT-4) was > 100 µM (inactive). The GI50 (PC-3) was > 100 µM (inactive), the GI50 (OVCAR-3) was > 100 µM (inactive) and the GI50 (A549) was > 100 µM (inactive). For the same compound, the GI50 (M14) was > 100 µM (inactive), the GI50 (HCC 2998) was > 100 µM (inactive) and the GI50 (HCT-15) was over 100 µM. For the same compound, the GI50 (LOX IMVI) was > 100 µM (inactive), the GI50 (UO-31) was > 100 µM (inactive) and the GI50 (SNB-19) was > 100 µM (inactive). The GI50 (Hs-578T) was > 100 µM (inactive), the GI50 (RPMI-8226) was > 100 µM (inactive) and the GI50 (SR) was > 100 µM (inactive). The GI50 (SW-620) was > 100 µM (inactive), the GI50 (CCRF-CEM) was > 100 µM (inactive) and the GI50 (KM12) was > 100 µM (inactive). The GI50 (ACHN) was > 100 µM (inactive), the GI50 (CAKI-1) was > 100 µM (inactive) and the GI50 (COLO 205) was > 100 µM (inactive). For the same compound, the GI50 (SK-MEL-5) was > 100 µM (inactive), the GI50 (SF-268) was > 100 µM (inactive) and the GI50 (Malme-3M) was > 100 µM (inactive). For the same compound, the GI50 (786-0) was > 100 µM (inactive), the GI50 (SN12C) was 25.4 µM (inactive) and the GI50 (HOP-62) was > 100 µM (inactive). For the same compound, the GI50 (MDA-MB-435) was > 100 µM (inactive), the GI50 (HCT-116) was > 100 µM (inactive) and the GI50 (NCI-H522) was > 100 µM (inactive). For the same compound, the GI50 (NCI-H460) was > 100 µM (inactive), the GI50 (OVCAR-5) was > 100 µM (inactive) and the GI50 (HL-60) was > 100 µM (inactive). For the same compound, the GI50 (SNB-75) was 83.6 µM (inactive), the GI50 (SK-MEL-28) was > 100 µM (inactive) and the GI50 (OVCAR-8) was > 100 µM (inactive). The GI50 (MDA-MB-231) was > 100 µM (inactive), the GI50 (HOP-92) was > 100 µM (inactive) and the GI50 (U-251) was > 100 µM (inactive). For the same compound, the GI50 (TK-10) was > 100 µM (inactive), the GI50 (SK-MEL-2) was > 100 µM (inactive) and the GI50 (UACC-257) was > 100 µM (inactive). The GI50 (SK-OV-3) was > 100 µM (inactive), the GI50 (DU-145) was > 100 µM (inactive) and the GI50 (MCF7) was > 100 µM (inactive). For the same compound, the GI50 (MDA-N) was > 100 µM (inactive).

In the case of `Cc1ccc(OP(=O)(Oc2ccc(C)cc2)N2C=Cc3ccccc3C2C#N)cc1` (stereo not drawn), the GI50 (BT-549) is reported as > 100 µM (inactive), the GI50 (NCI-H23) is reported as > 100 µM (inactive) and the GI50 (UACC-62) is reported as > 100 µM (inactive). For the same compound, the GI50 (A498) was > 100 µM (inactive), the GI50 (K562) was > 100 µM (inactive) and the GI50 (OVCAR-4) was > 100 µM (inactive). For the same compound, the GI50 (T47D) was > 100 µM (inactive), the GI50 (EKVX) was > 100 µM (inactive) and the GI50 (SF-295) was > 100 µM (inactive). For the same compound, the GI50 (NCI/ADR-RES) was > 100 µM (inactive), the GI50 (IGROV-1) was > 100 µM (inactive) and the GI50 (MOLT-4) was > 100 µM (inactive). The GI50 (PC-3) was > 100 µM (inactive), the GI50 (OVCAR-3) was > 100 µM (inactive) and the GI50 (SF-539) was > 100 µM (inactive). The GI50 (A549) was > 100 µM (inactive), the GI50 (M14) was > 100 µM (inactive) and the GI50 (HCT-15) was over 100 µM. The GI50 (LOX IMVI) was > 100 µM (inactive), the GI50 (UO-31) was > 100 µM (inactive) and the GI50 (SNB-19) was > 100 µM (inactive). For the same compound, the GI50 (Hs-578T) was 70.5 µM (inactive), the GI50 (RPMI-8226) was > 100 µM (inactive) and the GI50 (SR) was > 100 µM (inactive). For the same compound, the GI50 (SW-620) was > 100 µM (inactive), the GI50 (CCRF-CEM) was > 100 µM (inactive) and the GI50 (KM12) was > 100 µM (inactive). For the same compound, the GI50 (ACHN) was > 100 µM (inactive), the GI50 (CAKI-1) was > 100 µM (inactive) and the GI50 (COLO 205) was > 100 µM (inactive). The GI50 (SK-MEL-5) was > 100 µM (inactive), the GI50 (SF-268) was > 100 µM (inactive) and the GI50 (Malme-3M) was 82.8 µM (inactive). For the same compound, the GI50 (786-0) was > 100 µM (inactive), the GI50 (SN12C) was > 100 µM (inactive) and the GI50 (HOP-62) was > 100 µM (inactive). The GI50 (MDA-MB-435) was > 100 µM (inactive), the GI50 (HCT-116) was > 100 µM (inactive) and the GI50 (RXF 393) was > 100 µM (inactive). The GI50 (NCI-H522) was 48.8 µM (inactive), the GI50 (NCI-H460) was > 100 µM (inactive) and the GI50 (NCI-H226) was > 100 µM (inactive). For the same compound, the GI50 (OVCAR-5) was > 100 µM (inactive), the GI50 (HL-60) was > 100 µM (inactive) and the GI50 (SNB-75) was > 100 µM (inactive). The GI50 (SK-MEL-28) was > 100 µM (inactive), the GI50 (OVCAR-8) was > 100 µM (inactive) and the GI50 (HT-29) was > 100 µM (inactive). For the same compound, the GI50 (MDA-MB-231) was > 100 µM (inactive), the GI50 (HOP-92) was > 100 µM (inactive) and the GI50 (U-251) was > 100 µM (inactive). For the same compound, the GI50 (TK-10) was > 100 µM (inactive), the GI50 (SK-MEL-2) was > 100 µM (inactive) and the GI50 (UACC-257) was > 100 µM (inactive). The GI50 (SK-OV-3) was > 100 µM (inactive), the GI50 (DU-145) was > 100 µM (inactive) and the GI50 (MCF7) was > 100 µM (inactive). For the same compound, the GI50 (MDA-N) was > 100 µM (inactive).

For `CC(C)=CCNc1ncnc2c1ncn2CCC(=O)OC(C)(C)C`, the GI50 (BT-549) was 37.5 µM (inactive), the GI50 (NCI-H23) was > 100 µM (inactive) and the GI50 (UACC-62) was 38.3 µM (inactive). For the same compound, the GI50 (A498) was > 100 µM (inactive), the GI50 (K562) was 18.4 µM (inactive) and the GI50 (OVCAR-4) was 4.81 µM (inactive). The GI50 (T47D) was 24.8 µM (inactive), the GI50 (SF-295) was > 100 µM (inactive) and the GI50 (NCI/ADR-RES) was 42.9 µM (inactive). The GI50 (IGROV-1) was > 100 µM (inactive), the GI50 (MOLT-4) was 14.2 µM (inactive) and the GI50 (PC-3) was 34.8 µM (inactive). The GI50 (OVCAR-3) was > 100 µM (inactive), the GI50 (SF-539) was > 100 µM (inactive) and the GI50 (A549) was > 100 µM (inactive). For the same compound, the GI50 (M14) was > 100 µM (inactive), the GI50 (HCC 2998) was > 100 µM (inactive) and the GI50 (HCT-15) was over 100 µM. The GI50 (LOX IMVI) was > 100 µM (inactive), the GI50 (UO-31) was 22.7 µM (inactive) and the GI50 (SNB-19) was > 100 µM (inactive). The GI50 (Hs-578T) was 12.4 µM (inactive), the GI50 (RPMI-8226) was 72.3 µM (inactive) and the GI50 (SR) was 52.2 µM (inactive). The GI50 (SW-620) was > 100 µM (inactive), the GI50 (CCRF-CEM) was 22 µM (inactive) and the GI50 (KM12) was > 100 µM (inactive). The GI50 (ACHN) was > 100 µM (inactive), the GI50 (COLO 205) was > 100 µM (inactive) and the GI50 (SK-MEL-5) was 21.4 µM (inactive). For the same compound, the GI50 (SF-268) was > 100 µM (inactive), the GI50 (Malme-3M) was > 100 µM (inactive) and the GI50 (786-0) was > 100 µM (inactive). The GI50 (SN12C) was > 100 µM (inactive), the GI50 (HOP-62) was > 100 µM (inactive) and the GI50 (MDA-MB-435) was > 100 µM (inactive). The GI50 (HCT-116) was > 100 µM (inactive), the GI50 (RXF 393) was 36.1 µM (inactive) and the GI50 (NCI-H522) was > 100 µM (inactive). For the same compound, the GI50 (NCI-H460) was > 100 µM (inactive), the GI50 (NCI-H226) was > 100 µM (inactive) and the GI50 (OVCAR-5) was > 100 µM (inactive). For the same compound, the GI50 (HL-60) was > 100 µM (inactive), the GI50 (SNB-75) was 13 µM (inactive) and the GI50 (SK-MEL-28) was > 100 µM (inactive). The GI50 (OVCAR-8) was > 100 µM (inactive), the GI50 (HT-29) was > 100 µM (inactive) and the GI50 (MDA-MB-231) was > 100 µM (inactive). For the same compound, the GI50 (HOP-92) was 49.7 µM (inactive), the GI50 (U-251) was 63.8 µM (inactive) and the GI50 (TK-10) was > 100 µM (inactive). The GI50 (SK-OV-3) was 26.2 µM (inactive), the GI50 (DU-145) was > 100 µM (inactive) and the GI50 (MCF7) was > 100 µM (inactive). For the same compound, the GI50 (MDA-N) was > 100 µM (inactive).
